Data from patent publication US20060270591A1, “Androgen receptor coregulators” (priority 2002, published 2006).

Columns and labels:
AR [1] = experiment: AR transactivation reporter assay (CAT/LUC) with ARA267 (Example 4); format: cell-based, human
Description: (§1) 444. Human prostate cancer cell line PC-3 and DU145, lung cancer cell line H1299, and hepatoma cell line HepG2 were grown in DMEM-10% FCS. For transfection the cells were plated in 60-mm dishes and experiments performed by modified calcium phosphate technique as previously described (Yeh et al. Proc. Natl. Acad. Sci. U.S.A. (1996) 93, 5517-5521). After incubation for 24 h, the cells were treated with steroid hormones for another 24 h, then harvested for the chloramphenicol acetyltransferase (CAT) assay. Mouse mammary tumor virus-(MMTV)-CAT reporter gene was used to measure AR transcription activity, and a β-Galactosidase expression gene (pCMV-O-gal) was incorporated into the experiments as an internal control (Yeh et al. Proc. Natl. Acad. Sci. U.S.A. (1996) 93, 5517-5521). CAT activity was visualized by a PhosphorImager (Molecular Dynamics) and quantitated by IMAGEQUANT software (molecular Dynamics). For Luciferase (LUC) assay, pG5-LUC, pMMTV-LUC or estrogen response element (ERE)-LUC plasmid was used as the reporter gene and SV40-PRL (promega) was used as an internal control. Dual-luciferase Reporter 1000 Assay System (promega) was employed to measure the luciferase activity.

PSA = experiment: Western blot of PSA in LNCaP cells transfected with ARA267; format: cell-based, human; conditions: 10 nM DHT
Description: 447. LNCaP cells were transfected with pSG5ARA267 and pSG5 vector by Superfect (Qiagen) respectively. […] The cells were harvested and lysed following the protocol from Santa Cruz Biotechnology. In each sample, 50 μg whole-cell lysis proteins were separated on 10% SDS-polyacrylamide gel. After transfering, the membrane was blotted with polyclonal AR antibody (NH27), PSA antibody (Dako Corporation), and β-actin antibody (Santa Cruz Biotechnology). The bands were developed with an alkaline phosphatase detection kit (Bio-Rad).

ER = molecular target: T1, ER (Homo sapiens, UniProt P03372); experiment: ER transactivation luciferase assay with ARA267; format: cell-based; parameters: expressed in transfected cells; host or cells: DU145, HepG2, PC3; conditions: HepG2 cells
T1 sequence (P03372 1-595): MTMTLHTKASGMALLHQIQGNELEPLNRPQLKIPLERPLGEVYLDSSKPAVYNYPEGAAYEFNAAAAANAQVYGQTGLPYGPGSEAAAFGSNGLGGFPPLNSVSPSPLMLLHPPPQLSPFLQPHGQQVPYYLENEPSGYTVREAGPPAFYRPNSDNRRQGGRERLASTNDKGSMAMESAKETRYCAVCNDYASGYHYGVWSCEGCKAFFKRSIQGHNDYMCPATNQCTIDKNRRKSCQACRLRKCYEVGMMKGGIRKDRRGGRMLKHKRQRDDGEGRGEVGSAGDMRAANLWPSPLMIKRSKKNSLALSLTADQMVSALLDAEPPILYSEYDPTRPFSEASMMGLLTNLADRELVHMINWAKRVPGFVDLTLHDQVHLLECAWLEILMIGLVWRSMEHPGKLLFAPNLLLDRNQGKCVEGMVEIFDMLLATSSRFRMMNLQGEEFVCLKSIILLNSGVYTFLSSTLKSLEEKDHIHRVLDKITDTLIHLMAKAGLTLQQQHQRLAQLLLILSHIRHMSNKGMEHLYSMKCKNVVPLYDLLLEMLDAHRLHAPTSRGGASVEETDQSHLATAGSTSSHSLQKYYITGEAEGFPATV
Description: (§2) 31. […] The luciferase activity of each receptor without ARA267 and ligands was set as one fold. All values represent the mean SD of three independent experiments.
as §1

GR = molecular target: T2, GR (Homo sapiens, UniProt P04150); experiment: GR transactivation luciferase assay with ARA267; format: cell-based; parameters: expressed in transfected cells; host or cells: DU145, PC-3, HepG2; conditions: HepG2 cells
T2 sequence (P04150 1-777): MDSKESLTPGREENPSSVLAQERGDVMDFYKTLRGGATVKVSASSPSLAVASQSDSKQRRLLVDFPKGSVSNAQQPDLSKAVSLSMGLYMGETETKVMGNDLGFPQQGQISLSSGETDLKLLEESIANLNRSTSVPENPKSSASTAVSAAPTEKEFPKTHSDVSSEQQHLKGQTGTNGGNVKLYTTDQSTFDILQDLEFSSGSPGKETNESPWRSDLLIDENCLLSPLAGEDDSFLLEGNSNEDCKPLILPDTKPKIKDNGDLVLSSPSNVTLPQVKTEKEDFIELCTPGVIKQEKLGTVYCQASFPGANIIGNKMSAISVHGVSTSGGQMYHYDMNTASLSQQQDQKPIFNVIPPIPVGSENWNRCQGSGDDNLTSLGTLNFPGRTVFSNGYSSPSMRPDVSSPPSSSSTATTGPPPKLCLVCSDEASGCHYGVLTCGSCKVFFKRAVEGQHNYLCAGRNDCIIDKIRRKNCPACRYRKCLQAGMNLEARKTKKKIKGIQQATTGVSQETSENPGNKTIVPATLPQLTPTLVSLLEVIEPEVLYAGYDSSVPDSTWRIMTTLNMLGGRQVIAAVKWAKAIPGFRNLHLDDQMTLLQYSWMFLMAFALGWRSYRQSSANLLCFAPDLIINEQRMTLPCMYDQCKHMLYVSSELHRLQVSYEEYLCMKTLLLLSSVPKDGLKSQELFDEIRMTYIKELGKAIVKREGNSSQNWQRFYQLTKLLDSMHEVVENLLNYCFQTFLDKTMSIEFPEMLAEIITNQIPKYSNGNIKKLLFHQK
Description: as §2, §1

AR [2] = experiment: AR reporter gene assay with gelsolin (Example 5); format: cell-based, human; conditions: 100 nM HF; normal 10% FCS medium; no gelsolin
Source text: 468. A C-terminal fragment of gelsolin (aa 281-731) was isolated from pACT2 encoding gelsolin, and inserted into pSG5-Gal4 DNA-binding domain (DBD) (constructed by Dr. R. Nakao). AR fragment (aa 36-918) was inserted into pCMX-VP16 (a gift from Dr. D. Chen). For gelsolin expression vector, a full-length cDNA fragment of gelsolin from LKCG, a gift from Dr. D. Kwiatkowski (Northwestern University, Evanston, Ill.), was inserted into pSG5. Dr. M. L. Lu (Harvard Medical School, Boston, Mass.) provided the p (ARE) 4-luciferase (LUC) plasmid. Dr. A. Mizokami (University of Kanazawa, Kanazawa, Japan) provided the pGL3-PSA6.0LUC plasmid. The expression plasmids of AR peptides were constructed by inserting the PCR amplified cDNA fragment of AR DBD into pFlag-CMV (Sigma) and the fragments of AR LBD into pCDNA-flag plasmid. Transfection protocol and reporter gene assay were described in previous report (Ting et al. Proc Natl Acad Sci USA 99, 661-666 (2002)).

mtARt877s and gelsolin = mtARt877s and gelsolin (Homo sapiens, UniProt P10275, T878S); conditions: 10 μM HF, 100 nM DHT, 1 μM E2, 1 μM P; compared to EtOH
Source text: Y190 yeast cells were transformed with pAS2-mtARt877s (aa 595-918) and pATC2-gelsolin (aa 281-731).

wtAR and gelsolin = wtAR and gelsolin (Homo sapiens, UniProt P10275); conditions: COS-7 cells; T 10 nM; HF 1 μM

Compound: ARA267: AR coregulator of 2427 amino acids containing a SET domain, calculated molecular weight 267 kD
- effect on AR transactivation (AR [1]; 10 nM E2): marginal effects
- effect on DHT-mediated AR transactivation (AR [1]; PC-3 cells, MMTV-CAT): enhance DHT-mediated AR transactivation in a dose-dependent manner
- effect on DHT-induced PSA protein expression (PSA): enhance DHT-induced PSA protein expression
- effect on the transactivation of ER (ER): marginal effect
- effect on the transactivation of GR (GR): marginal effect

Compound: CC(C)(O)C(=O)Nc1ccc([N+](=O)[O-])c(C(F)(F)F)c1 [HF, hydroxyflutamide]
- inhibition of AR transactivation (AR [2]): 80%
- interaction between mtARt877s and gelsolin (β-gal activity) (mtARt877s and gelsolin): promoted significant interaction
- interaction between wtAR and gelsolin (wtAR and gelsolin): induced significant interaction
